The results in this text go back to PubChem BioAssay (NCI).

Experiment in all cases: NCI-60 cell line screen, 48 h
Experiment [1] concerns OVCAR-4 ovarian.
In experiment [2] the test system is RPMI-8226 leukemia.
The subject of experiment [3] is SK-OV-3 ovarian.
The test system of experiment [4] is SK-MEL-28 melanoma.
The test system of experiment [5] is SR leukemia.
The subject of experiment [6] is U251 CNS.
The subject of experiment [7] is ACHN renal.
In experiment [8] the test system is NCI-H226 lung.
Experiment [9] deals with LOX IMVI melanoma.
Experiment [10] relates to A498 renal.

The structures appear in SMILES notation.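 How tested: cells in 96-well plates exposed to compound for 48 hours at five concentrations. GI50 marks 50% less growth. Definition used: TGI = concentration required for complete inhibition of growth.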

In the case of `COC(=O)c1nc(-c2ccccc2)oc1S(=O)(=O)n1nc(C)cc1N`, the GI50 was 16.2 µM in experiment [1]; 5.39 µM in experiment [2]; 45.5 µM in experiment [3]; 14.7 µM in experiment [4]; 0.933 µM in experiment [5]; 16.5 µM in experiment [6]. For the same compound, the GI50 in experiment [7] is 1.71 µM; in experiment [8], 16.5 µM; in experiment [9], 1.51 µM; in experiment [10], 18.7 µM. Moreover, the TGI in [1] was 36 µM; in experiment [2] it was 23.4 µM; in experiment [3], over 100 µM; in experiment [4], 29.9 µM; in experiment [5], 3.94 µM; in experiment [6] it was 30.8 µM. Further, the TGI in experiment [7] is 3.11 µM; in [8], 41.1 µM; in experiment [9], 3.34 µM; in [10], 70.2 µM.

For `CC(C)(C)c1ccc(C(=O)Nc2sc3c(c2C(N)=O)CCC(=O)C3)cc1`, the GI50 was 0.354 µM in [1]; 0.158 µM in [2]; 2.81 µM in [3]; 1.13 µM in [4]; 0.363 µM in [5]; 0.345 µM in experiment [6]. The GI50 was 0.352 µM in [7], 1.53 µM in experiment [8], 0.398 µM in experiment [9] and 2.83 µM in [10]. Also, the TGI worked out at 1.27 µM in [1]; 0.581 µM in experiment [2]; 8.75 µM in [3]; 2.77 µM in [4]; 10.1 µM in experiment [5]; 1.43 µM in experiment [6]. Moreover, the TGI in [7] was 1.1 µM; in [8], 3.43 µM; in experiment [9], 1.51 µM; in [10], 9.04 µM.

As for `CCN1C(=O)N(CC)C2C1NN=c1s/c(=C\c3ccccc3Br)c(=O)n12` (stereo not given), the GI50 in experiment [1] is 0.069 µM; in experiment [2], 0.0333 µM; in experiment [3] it was 0.0667 µM; in [4] it was 7.19 µM; in experiment [5], 0.023 µM; in experiment [6], 0.0418 µM. In addition, the GI50 was 0.0437 µM in experiment [7], 0.132 µM in [8], 0.0284 µM in experiment [9] and under 0.0156 µM in experiment [10]. Further, the TGI in [1] was 63 µM; in [2] it was 8.76 µM; in [3] it was over 100 µM; in experiment [4] it was 25 µM; in experiment [5], over 100 µM; in experiment [6], 22.3 µM. Also, the TGI was over 61.6 µM in experiment [7], 4.98 µM in [8], 16.6 µM in experiment [9] and 0.0598 µM in experiment [10].

With `CC1=CC(=O)C(O)C2(C)C1CC(O)C13COC4(C)C(OC(=O)C41)C(O)C23` (stereo not given), the GI50 in [1] was 15 µM; in experiment [2], 17.3 µM; in [3], 16.5 µM; in experiment [4], 7.32 µM; in experiment [5], 0.688 µM; in experiment [6] it was 6.1 µM. Further, the GI50 in experiment [7] was 4.75 µM; in experiment [8] it was 3.48 µM; in experiment [9], 2.41 µM; in experiment [10] it was 18 µM. Further, the TGI in experiment [1] was over 100 µM; in [2], over 100 µM; in experiment [3] it was 95.7 µM; in experiment [4], over 100 µM; in [5], 6.46 µM; in [6], 31.6 µM. The TGI came to 20.3 µM in experiment [7], 21.2 µM in experiment [8], 8.4 µM in experiment [9] and 54.4 µM in experiment [10].

Consider `CC1(C)CCC[C@]2(C)[C@@H](C=O)C(C=O)=CC[C@@H]12`, for which the TGI is 44.9 µM in [1]; 31.4 µM in experiment [2]; over 100 µM in [3]; over 100 µM in experiment [4]; 44.5 µM in [5]; 46.9 µM in [6]. For the same compound, the TGI is 30.6 µM in [7], 56.1 µM in experiment [8], 42.2 µM in [9] and over 100 µM in [10].

For the compound `COc1ccc(OC)c(Cn2cc3c(c2)-c2oncc2CC3)c1`, the GI50 in experiment [1] is 5.74 µM; in experiment [2], 3.39 µM; in experiment [3] it was 3.13 µM; in experiment [4], 5.09 µM; in experiment [5], 1.16 µM; in experiment [6], 3.54 µM. In addition, the GI50 in experiment [7] was 6.07 µM; in [8] it was 7.67 µM; in experiment [9], 4.06 µM; in experiment [10], 1.73 µM. In addition, the TGI in [1] is over 100 µM; in experiment [2] it was over 27.9 µM; in experiment [3], over 57.5 µM; in [4], over 100 µM; in [5], 18.2 µM; in experiment [6], over 100 µM. For the same compound, the TGI in experiment [7] is over 100 µM; in experiment [8] it was over 100 µM; in experiment [9] it was over 100 µM; in experiment [10], 7.22 µM.

`COc1ccc(-c2cc(=O)c3c(OC)c(OC)c(OC)c(OC)c3o2)cc1`: the TGI in experiment [1], in [2], in experiment [3], in [4], in [5] and in experiment [6] was over 100 µM in each case. The TGI in experiment [7] is over 100 µM; in experiment [8], over 100 µM; in experiment [9], over 100 µM; in [10] it was 83.9 µM.

With `N/N=C1\CC(=O)NC(=O)N1`, the TGI in experiment [1], in experiment [2], in experiment [3], in [4], in experiment [5] and in experiment [6] was over 100 µM in each case. The TGI in [7], in experiment [8], in experiment [9] and in experiment [10] was over 100 µM in each case.

`CN1CCN(CC(O)COc2c(Br)c(Br)c(Br)c3c2OC(C)(C)C3)CC1` (stereo not given): the GI50 is 13.7 µM in [1]; 1.8 µM in experiment [2]; 18.4 µM in experiment [3]; 1.85 µM in experiment [4]; 1.95 µM in [5]; 3.56 µM in experiment [6]. The GI50 in [7] was 11.3 µM; in experiment [8] it was 24.2 µM; in [9], 1.92 µM; in [10], 10.1 µM. For the same compound, the TGI in [1] was found to be 35.1 µM; in experiment [2], 4.44 µM; in experiment [3], 38.4 µM; in experiment [4] it was 3.48 µM; in experiment [5], 4.75 µM; in experiment [6], 12.9 µM. The TGI in experiment [7] was determined as 24.7 µM; in experiment [8], 61.4 µM; in experiment [9] it was 3.36 µM; in experiment [10] it was 28.7 µM.

With `O=C1NC(=O)C(c2cccc(Cl)c2)=C1Nc1ccc(O)c(Cl)c1`, the GI50 in [1] is 8.98 µM; in [2] it was 14 µM; in experiment [3], 6.62 µM; in experiment [4], 13.7 µM; in [5] it was 11.3 µM; in experiment [6] it was 12.5 µM. Further, the GI50 was 11.4 µM in experiment [7], 12 µM in experiment [8], 8.85 µM in experiment [9] and 11.1 µM in experiment [10]. Besides, the TGI in [1] was over 25 µM; in experiment [2], over 25 µM; in [3], 16.2 µM; in experiment [4] it was over 25 µM; in experiment [5], over 25 µM; in experiment [6], over 25 µM. Also, the TGI in experiment [7], in experiment [8], in [9] and in experiment [10] was over 25 µM each time.

`CN1CCC(n2cnc(-c3ccc(F)cc3)c2-c2ccnc(N)n2)CC1`: the GI50 in experiment [1] is 7.04 µM; in experiment [2], 16.6 µM; in experiment [3], 10.8 µM; in [4], over 23.8 µM; in experiment [5], 10.4 µM; in [6], 8.53 µM. The GI50 is 5.71 µM in experiment [7], 10.9 µM in experiment [8], 6.95 µM in experiment [9] and 5.85 µM in [10]. Besides, the TGI in [1], in [2], in experiment [3], in experiment [4], in experiment [5] and in experiment [6] was over 25 µM each time. For the same compound, the TGI is over 25 µM in experiment [7], over 25 µM in [8], over 25 µM in experiment [9] and over 23.5 µM in [10].

For the compound `CC(C)=CCC/C(C)=C/CC/C(C)=C/CC/C=C(\C)CC/C=C(\C)CCC(=O)Nc1ccn(C2OC(CO)C(O)C2(F)F)c(=O)n1` (stereo not given), the GI50 in [1] is 1.91 µM; in [2] it was 0.122 µM; in [3], 0.0644 µM; in experiment [4], 2.64 µM; in [5], 0.0391 µM; in experiment [6] it was 0.0884 µM. In addition, the GI50 in [7] is 0.0266 µM; in [8] it was 2.5 µM; in [9], 0.347 µM; in experiment [10], 0.0695 µM. The TGI in [1] turned out to be 8.67 µM; in experiment [2], 2.49 µM; in [3] it was 13.8 µM; in experiment [4], 21.9 µM; in [5], 0.374 µM; in experiment [6], 16.1 µM. Further, the TGI in experiment [7] was 11.2 µM; in experiment [8], 20.4 µM; in experiment [9], 14.5 µM; in experiment [10] it was 18.5 µM.

On to `COc1ccc2cc(-c3c(-c4ccncc4)nc(-c4ccc(S(C)=O)cc4)n3C)ccc2c1` (stereo not given), for which the GI50 is 20.6 µM in experiment [1]; 17 µM in [2]; 10.7 µM in [3]; 24.2 µM in experiment [4]; over 25 µM in experiment [5]; over 25 µM in experiment [6]. Besides, the GI50 in experiment [7] was 20.2 µM; in experiment [8], over 9.95 µM; in experiment [9] it was over 23.4 µM; in experiment [10] it was over 7.37 µM. The TGI in [1], in experiment [2], in experiment [3], in experiment [4], in [5] and in experiment [6] was over 25 µM throughout. The TGI in [7], in experiment [8], in [9] and in experiment [10] was over 25 µM throughout.

On to `CC1(C)N=C(N)N=C(N)N1c1ccc(CCCCc2ccc(S(=O)(=O)F)cc2)c(Cl)c1`, for which the GI50 is 5.18 µM in experiment [1]; 0.283 µM in experiment [2]; 7.97 µM in [3]; 0.85 µM in [4]; 0.051 µM in [5]; 0.0936 µM in [6]. The GI50 in experiment [7] was 0.789 µM; in experiment [8] it was 0.626 µM; in experiment [9], 0.0723 µM; in [10] it was 0.981 µM. For the same compound, the TGI came to 22 µM in experiment [1]; 13 µM in [2]; 25.5 µM in experiment [3]; 20.8 µM in [4]; 23.2 µM in [5]; 16.4 µM in [6]. In addition, the TGI is over 100 µM in [7], 25.9 µM in experiment [8], 15.3 µM in [9] and 18 µM in experiment [10].

Consider `Cc1cc(N(CCC#N)CCC#N)ccc1/C=C1N=C(/C=C\c2ccccc2)N(c2ccc(Cl)cc2)C\1=O`, for which the TGI in experiment [1], in experiment [2], in [3], in experiment [4], in experiment [5] and in [6] was over 100 µM each time. In addition, the TGI in experiment [7], in [8], in experiment [9] and in experiment [10] was over 100 µM each time.

Consider `COc1ccc(C(=O)N2c3ccccc3Sc3ccccc32)c(OC)c1`, for which the GI50 in experiment [1] is 3.17 µM; in experiment [2], 0.523 µM; in experiment [3] it was 0.715 µM; in experiment [4] it was 0.942 µM; in experiment [5], 0.562 µM; in [6], 0.615 µM. Moreover, the GI50 in [7] was 0.726 µM; in experiment [8] it was 0.843 µM; in experiment [9] it was 0.601 µM; in experiment [10] it was 0.307 µM. Moreover, the TGI is over 100 µM in experiment [1]; 29.9 µM in experiment [2]; over 100 µM in experiment [3]; over 100 µM in [4]; over 100 µM in [5]; over 100 µM in experiment [6]. For the same compound, the TGI in experiment [7] is over 100 µM; in experiment [8] it was over 100 µM; in [9], over 100 µM; in experiment [10], 16.6 µM.
